Laboratory results as given in patent publication US9708314B2, “Heterocyclic amide compound” (NISSAN CHEMICAL INDUSTRIES, LTD., priority 2013, dated 2017).

How the values were obtained:
Assay type in all cases: in vivo
[1] = tested on: Echinochloa oryzacola Vasing.; experiment: Test Example 2: herbicidal activity, application during weed generation in submerged conditions; conditions: Eighteenth Table; application herbicide amount 320 g/ha
Procedure, shortened: (§1)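 Seeds were sown together in alluvial soil kept under 4 cm of water and grown at 25 °C to 30 °C. Once plants reached the one- to two-leaf stage, the diluted emulsion was applied to the water surface at a predetermined g/ha amount, and effects were rated 0–5 after three weeks.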

Scirpus juncoides [2] = experiment: as above; conditions: Eighteenth Table; application herbicide amount 320 g/ha
Procedure, shortened: as §1

Monochoria vaginalis [3] = experiment: as above; conditions: Eighteenth Table; application herbicide amount 320 g/ha
Procedure, shortened: as §1

[4] = tested on: directly sowed Oryza sativa; experiment: Test Example 3: effect on crop by application to foliage (Wagner pot, water depth 0.1-0.5 cm); conditions: Nineteenth Table; application to foliage; application herbicide amount 320 g/ha
Procedure, shortened: (§2)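 A small sprayer delivered the diluted emulsion uniformly to foliage at the chosen rate in g/ha, 14 days after sowing in Wagner pots held at 25–30 °C. Outcome: 0–5 herbicidal-ratio score read three weeks post-treatment.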

[5] = tested on: Echinochloa oryzacola Vasing.; experiment: Test Example 1: herbicidal activity, application before weed generation in submerged conditions; conditions: Application herbicide amount 320 g/ha; Seventeenth Table
Procedure, shortened: (§3)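 Water-diluted emulsion formulation is applied onto flood water (4 cm deep) covering alluvial soil on the day weed seeds are sown, after transplanting 2.5 leaf stage rice. Rates are expressed per hectare. Injury or control is graded 0–5 three weeks later.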

Scirpus juncoides [6] = experiment: as above; conditions: Application herbicide amount 320 g/ha; Seventeenth Table
Procedure, shortened: as §3

Monochoria vaginalis [7] = experiment: as above; conditions: Application herbicide amount 320 g/ha; Seventeenth Table
Procedure, shortened: as §3

Leptochloa chinensis = experiment: Test Example 3: herbicidal effect by application to foliage (Wagner pot, water depth 0.1-0.5 cm); conditions: Nineteenth Table; application to foliage; application herbicide amount 320 g/ha
Procedure, shortened: as §2

Cyperus difformis = experiment: as above; conditions: Nineteenth Table; application to foliage; application herbicide amount 320 g/ha
Procedure, shortened: as §2

[8] = tested on: Echinochloa crus-galli var. crus-galli; experiment: as above; conditions: Nineteenth Table; application to foliage; application herbicide amount 320 g/ha
Procedure, shortened: as §2

SMILES | A (Echinochloa oryzicola Vasing.) herbicidal ratio grade [1] | B (Scirpus juncoides) herbicidal ratio grade (Scirpus juncoides [2]) | C (Monochoria vaginalis) herbicidal ratio grade (Monochoria vaginalis [3]) | b (effect on crop grade) [4] | A: Echinochloa oryzicola Vasing. (herbicidal effect grade) [5] | B: Scirpus juncoides (herbicidal effect grade) (Scirpus juncoides [6]) | C: Monochoria vaginalis (herbicidal effect grade) (Monochoria vaginalis [7]) | D (herbicidal effect grade) (Leptochloa chinensis) | E (herbicidal effect grade) (Cyperus difformis) | H (herbicidal effect grade) [8]
Cc1nnc(NC(=O)c2ccc(C(F)(F)F)n3c(-c4cc5ccccc5n4C)nnc23)o1 [1-059] | 2 (Herbicidal ratio of 20% or more and less than 40%) | 3 (Herbicidal ratio of 40% or more and less than 70%) | 2 (Herbicidal ratio of 20% or more and less than 40%) | 0 (Herbicidal ratio of 5% or less (almost no effect)) | 2 (Herbicidal ratio of 20% or more and less than 40%) | 3 (Herbicidal ratio of 40% or more and less than 70%) | 2 (Herbicidal ratio of 20% or more and less than 40%) | 3 (Herbicidal ratio of 40% or more and less than 70%) | 3 (Herbicidal ratio of 40% or more and less than 70%) | 0 (Herbicidal ratio of 5% or less (almost no effect))
COCCOC(=O)Cc1nnc2c(C(=O)Nc3nnc(C)o3)ccc(C(F)(F)F)n12 [1-060] | 2 (Herbicidal ratio of 20% or more and less than 40%) | 3 (Herbicidal ratio of 40% or more and less than 70%) | 2 (Herbicidal ratio of 20% or more and less than 40%) | 2 (Herbicidal ratio of 20% or more and less than 40%) | 4 (Herbicidal ratio of 70% or more and less than 90%) | 4 (Herbicidal ratio of 70% or more and less than 90%) | 3 (Herbicidal ratio of 40% or more and less than 70%) | 4 (Herbicidal ratio of 70% or more and less than 90%) | 3 (Herbicidal ratio of 40% or more and less than 70%) | 5 (Herbicidal ratio of 90% or more (almost completely withered))
CC(=O)OCc1nnc2c(C(=O)Nc3nnc(C)o3)ccc(C(F)(F)F)n12 [1-062] | 2 (Herbicidal ratio of 20% or more and less than 40%) | 2 (Herbicidal ratio of 20% or more and less than 40%) | 2 (Herbicidal ratio of 20% or more and less than 40%) | 2 (Herbicidal ratio of 20% or more and less than 40%) | 3 (Herbicidal ratio of 40% or more and less than 70%) | 2 (Herbicidal ratio of 20% or more and less than 40%) | 1 (Herbicidal ratio of 5% or more and less than 20%) | 4 (Herbicidal ratio of 70% or more and less than 90%) | 4 (Herbicidal ratio of 70% or more and less than 90%) | 5 (Herbicidal ratio of 90% or more (almost completely withered))
O=C(Nc1nnco1)c1ccc(C(F)(F)F)n2c(-c3ccc(Cl)nc3)nnc12 [1-150] | 5 (Herbicidal ratio of 90% or more (almost completely withered)) | 5 (Herbicidal ratio of 90% or more (almost completely withered)) | 4 (Herbicidal ratio of 70% or more and less than 90%) | – | 5 (Herbicidal ratio of 90% or more (almost completely withered)) | 5 (Herbicidal ratio of 90% or more (almost completely withered)) | 5 (Herbicidal ratio of 90% or more (almost completely withered)) | 5 (Herbicidal ratio of 90% or more (almost completely withered)) | 5 (Herbicidal ratio of 90% or more (almost completely withered)) | 5 (Herbicidal ratio of 90% or more (almost completely withered))
COc1ccc(Cc2nnc3c(C(=O)Nc4nnco4)ccc(C(F)(F)F)n23)cc1 [1-151] | 4 (Herbicidal ratio of 70% or more and less than 90%) | 4 (Herbicidal ratio of 70% or more and less than 90%) | 2 (Herbicidal ratio of 20% or more and less than 40%) | – | 5 (Herbicidal ratio of 90% or more (almost completely withered)) | 5 (Herbicidal ratio of 90% or more (almost completely withered)) | 3 (Herbicidal ratio of 40% or more and less than 70%) | 4 (Herbicidal ratio of 70% or more and less than 90%) | 4 (Herbicidal ratio of 70% or more and less than 90%) | 5 (Herbicidal ratio of 90% or more (almost completely withered))
C#CCN(C)c1nnc2c(C(=O)Nc3nnc(C)o3)ccc(C(F)(F)F)n12 [1-152] | 3 (Herbicidal ratio of 40% or more and less than 70%) | 3 (Herbicidal ratio of 40% or more and less than 70%) | 3 (Herbicidal ratio of 40% or more and less than 70%) | – | 5 (Herbicidal ratio of 90% or more (almost completely withered)) | 4 (Herbicidal ratio of 70% or more and less than 90%) | 3 (Herbicidal ratio of 40% or more and less than 70%) | 5 (Herbicidal ratio of 90% or more (almost completely withered)) | 4 (Herbicidal ratio of 70% or more and less than 90%) | 5 (Herbicidal ratio of 90% or more (almost completely withered))
Cc1nnc(NC(=O)c2ccc(C(F)(F)F)n3c(N(C)CCC#N)nnc23)o1 [1-153] | 3 (Herbicidal ratio of 40% or more and less than 70%) | 3 (Herbicidal ratio of 40% or more and less than 70%) | 3 (Herbicidal ratio of 40% or more and less than 70%) | – | 3 (Herbicidal ratio of 40% or more and less than 70%) | 3 (Herbicidal ratio of 40% or more and less than 70%) | 4 (Herbicidal ratio of 70% or more and less than 90%) | 5 (Herbicidal ratio of 90% or more (almost completely withered)) | 3 (Herbicidal ratio of 40% or more and less than 70%) | 5 (Herbicidal ratio of 90% or more (almost completely withered))
COC1CCC(c2nnc3c(C(=O)Nc4nnc(C)o4)ccc(C(F)(F)F)n23)CC1 (stereo not drawn) [1-169] | 3 (Herbicidal ratio of 40% or more and less than 70%) | 4 (Herbicidal ratio of 70% or more and less than 90%) | 4 (Herbicidal ratio of 70% or more and less than 90%) | 1 (Herbicidal ratio of 5% or more and less than 20%) | 5 (Herbicidal ratio of 90% or more (almost completely withered)) | 4 (Herbicidal ratio of 70% or more and less than 90%) | 4 (Herbicidal ratio of 70% or more and less than 90%) | 4 (Herbicidal ratio of 70% or more and less than 90%) | – | 5 (Herbicidal ratio of 90% or more (almost completely withered))
